Assay [1] deals with T1, USP14 (Homo sapiens, UniProt P54578). Kind of assay: SPR binding to recombinant USP14, NTA chip. The source says:
(§1) A BIACORE T200 was used for characterization of the interaction between compounds and USP14, UCHL5 and 26S proteasome. The standard BIACORE protocols were used for NTA chip (Ni/His-tag immobilization) and CM7 chip for compound interaction studies with slight modification described below. The x6 his-tagged USP14 and UCHL5 proteins were coupled to a Series S NTA BIACORE sensor chip in the BIACORE T200 using the his-tags for adherence of the proteins to the surface and an amine coupling procedure for covalent attachment to the chip surface. NTA chip was cleaned using three 500 μM EDTA injections followed by an injection of 500 μM Ni^2+ and activation of the chip surface with EDC/NHS injection according to BIACORE standard methods. Each chip has four separate areas, which were handled separately during the immobilization procedure. Area 1 was used as blank reference surface, area 2–4 was coupled with investigated recombinant proteins or complexes. Proteins were diluted in running buffer (10 mM HEPES, 150 mM NaCl, 0,005% Tween 20) to typically 10 μg/ml before injection(1 mL) over the prepared surfaces. […] The immobilization procedure was followed by injections of compound concentration series of VLX1570. Concentration series were set up with ×3 and ×2 dilution series ending with the highest concentration 200 μM for the consecutive measurements of changes of refractive index. Compounds were kept in stock concentrations of 10 mM in DMSO and diluted in running buffer down to the test concentration. Rmax and KD were calculated using Langmuir binding isotherms as provided in the Biacore software.
On the technique in general: SPR reads the build-up and loss of mass on a sensor chip optically.

The test system of assay [2] is KMS-11 multiple myeloma cells. It is filed as in vivo. Particulars: 3 mg/kg intravenous, 10 days; SCID mice. The method, then:
Two different multiple myeloma models were used. Experimental protocols and methods were performed by Accelera (Nerviano, Italy) in accordance with guidelines and with permission from the local ethics committee (Nerviano Medical Sciences (NMS) Ethic Committee). All experimental protocols were approved by the Nerviano Medical Sciences (NMS) Ethic Committee. Study director was Marina Ciomei. SCID female mice were obtained from Charles River, Italy. Body weights at the day of tumor implant were between 19 and 22 grams. Treatment started at day 7 after injection of tumor cells and continued for 10 consequtive days. Mice were monitored daily for mortality and clinical signs. In the KMS-11 model, antitumor efficacy was evaluated in terms of survival increase respect to control. In the RPMI8226 model, the growth of subcutaneous tumors was recorded. […] A gray-scale image of the mice was captured, followed by an overlay of a bioluminescence map representing the spatial distribution of photons detected from cleaved luciferin in the cancer cells expressing luciferase. Signal intensity was quantified using a customized version of the IGOR Pro version 4.09A Software (WaveMetrics, Inc., Lake Oswego, OR) called Living Image version 3.00 (Xenogen). Photon emission was measured as whole-body radiance and the individual regions of interest (ROIs) were manually selected. […]

Assay [3] concerns the target T1, USP14. Kind of assay: SPR binding to recombinant USP14, CM7 chip. To be noted: protein from Karolinska Institute Protein Science Facility, read-out: USP14(K) KD.
Source text: as §1, with “Concentration series were set up with ×3 and ×2 dilution series ending with the highest concentration 200 μM for the consecutive measurements of changes of refractive index. Compounds were kept in stock concentrations of 10 mM in DMSO and diluted in running buffer down to the test concentration.” left out

Assay [4] concerns RPMI8226 tumors. In words: Subcutaneous RPMI8226 multiple myeloma model in mice. It is filed as in vivo. The method, then:
Tissue sections were deparaffinized with xylene, rehydrated and microwaved and then incubated with primary antibodies diluted in 1% (wt/vol) BSA and visualized by standard avidin–biotin–peroxidase complex technique (Vector Laboratories, Burlingame, CA, USA). Counterstaining was performed with Mayer’s haematoxylin. Slides were mounted in Vectashield containing DAPI and images recorded in a Zeiss Axioplan 2 fluorescence microscope. Antibodies: KI67 Dako #M7240 (1:100)(using Rodent Block (Biocare-RBM961) and Envision Plus anti-mouse labeled polymer (Dako K4001); Ub-K48 (Millipore-05-1307) (1:100) (serum free Protein block (Dako-X0909)) and Envision + anti-rabbit labeled polymer (Dako-K4003); CXCR4 (Sigma-C3116) (1:400) (Dako-X0909) and Envision + anti-rabbit labeled polymer (Dako-K4003); cleaved casapse-3 (Cell Signaling-9664) (1:100) (Dako-X0909) and Envision + anti-rabbit labeled polymer (Dako-K4003).
Two different multiple myeloma models were used. Experimental protocols and methods were performed by Accelera (Nerviano, Italy) in accordance with guidelines and with permission from the local ethics committee (Nerviano Medical Sciences (NMS) Ethic Committee). All experimental protocols were approved by the Nerviano Medical Sciences (NMS) Ethic Committee. Study director was Marina Ciomei. SCID female mice were obtained from Charles River, Italy. Body weights at the day of tumor implant were between 19 and 22 grams. Treatment started at day 7 after injection of tumor cells and continued for 10 consequtive days. Mice were monitored daily for mortality and clinical signs. In the KMS-11 model, antitumor efficacy was evaluated in terms of survival increase respect to control. In the RPMI8226 model, the growth of subcutaneous tumors was recorded. For imaging, mice were injected intraperitoneally with 150 mg/kg d-luciferin (Promega) followed by anesthetization in 2–3% isoflurane atmosphere. After 10–12 minutes of biodistribution time, mice were imaged using a charge coupled device (CCD camera, Xenogen IVIS Lumina System) to evaluate the bioluminescence in the animal. Nose-cone isoflurane delivery system and heated stage for maintaining body temperature were used. A gray-scale image of the mice was captured, followed by an overlay of a bioluminescence map representing the spatial distribution of photons detected from cleaved luciferin in the cancer cells expressing luciferase. Signal intensity was quantified using a customized version of the IGOR Pro version 4.09A Software (WaveMetrics, Inc., Lake Oswego, OR) called Living Image version 3.00 (Xenogen). Photon emission was measured as whole-body radiance and the individual regions of interest (ROIs) were manually selected. Data were expressed as photon/second/cm^2/steradian.

In assay [5] the target is T1, USP14. Kind of assay: Ub-VS labeling of lysates of exposed OPM-2 cells, USP14. It is filed as cell-based. Details: endogenous in cells; host or cells: OPM-2 multiple myeloma cells. To be noted: 0.5 μM, 3 hours. The method, then: Cell extract proteins were resolved by Tris-Acetate PAGE gels (Invitrogen, Carlsbad, CA) and transferred onto a polyvinylidene difluoride (PVDF) membrane for western blotting. For Ub-VS labeling, we lysed cell pellets from control or treated cells with buffer (50 mM HEPES pH 7.4, 250 mM sucrose, 10 mM MgCl2, 2 mM ATP, 1 mM DTT and 1%NP-40) on ice for 30 min and removed debris by centrifugation. We labeled 25 μg of protein with 1 μM Ub-VS for 30 min at 37 °C. We resolved samples by SDS-PAGE and performed immunoblotting. For HA-Ub-VS labeling, we pretreated purified 19S (5 nM) with DMSO or 2.5, 5, 10, 15 or 25μM 1570 for 10 min at room temperature, which followed with labeling with 1 μM HA-Ub-VS for 30 min at 37 °C and immunoblotting.

T1 sequence (P54578 whole entry): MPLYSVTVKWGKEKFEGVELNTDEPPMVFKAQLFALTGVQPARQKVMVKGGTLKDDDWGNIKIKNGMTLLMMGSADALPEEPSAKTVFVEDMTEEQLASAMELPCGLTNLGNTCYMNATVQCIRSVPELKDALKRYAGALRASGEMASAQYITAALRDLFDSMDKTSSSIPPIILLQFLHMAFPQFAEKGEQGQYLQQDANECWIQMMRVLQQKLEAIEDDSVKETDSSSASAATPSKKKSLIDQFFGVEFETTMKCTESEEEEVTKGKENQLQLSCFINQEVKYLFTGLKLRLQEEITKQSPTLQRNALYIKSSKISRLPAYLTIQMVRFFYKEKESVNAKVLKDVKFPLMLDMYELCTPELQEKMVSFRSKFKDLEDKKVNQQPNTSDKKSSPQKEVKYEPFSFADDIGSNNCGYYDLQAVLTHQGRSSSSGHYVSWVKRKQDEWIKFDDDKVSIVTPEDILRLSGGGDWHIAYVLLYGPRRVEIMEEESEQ

As a reminder, the Kd is the constant that tells how readily two partners part at equilibrium. `C=CC(=O)N1CC/C(=C\c2ccc(F)c([N+](=O)[O-])c2)C(=O)/C(=C/c2ccc(F)c([N+](=O)[O-])c2)C1` [VLX1570]: the Kd in assay [1] (NTA chip, protein from Karolinska Institute Protein Science Facility, read-out: USP14(K) KD) was 18 µM; in assay [1] (NTA chip, protein from ProSpec, read-out: USP14(P) KD), 8.1 µM; in assay [1] (NTA chip, protein from Ubiquigent, read-out: USP14(U) KD), 1.5 µM; in assay [1] (two different sources of recombinant protein, Ni2+-histidine immobilisation, read-out: dissociation constant (KD) for binding to recombinant USP14) it was 1.5 to 18 µM; in assay [3] it was 35 µM. The “survival of the animals” value in assay [2] is “increased the survival”. In assay [4] (3 mg/kg, 10 consecutive days, subcutaneous RPMI8226), the tumor growth result was “significant decrease in tumor growth”. The “CXCR4 staining in tumors (immunohistochemistry)” value in assay [4] (RPMI8226 tumors, 3 mg/kg) is on record as “decreased CXCR4 staining”. Also, the “K48-linked ubiquitin chains in tumors” value in assay [4] (RPMI8226 tumors, 3 mg/kg) is given as “increases in K48-linked ubiquitin chains”. For the same compound, the “active caspase-3 in tumors” value in assay [4] (RPMI8226 tumors, 3 mg/kg) is reported as “increased active caspase-3”. The “ERK phosphorylation in RPMI8226 cells in vivo” value in assay [4] (after exposure of mice) is “decreased ERK phosphorylation”. In addition, the “inhibition of USP14 activity in exposed cells” value in assay [5] was “Inhibition of USP14 activity could be demonstrated”.
